Assay results: article PMC10992250, “Enzymatic synthesis of high-titer nicotinamide mononucleotide with a new nicotinamide riboside kinase and an efficient ATP regeneration system” (Bioresources and Bioprocessing, 2022)

Columns and labels:
Gbst-AcK = molecular target: T1, Gbst-AcK (Geobacillus stearothermophilus, UniProt A0ACH1E729); assay: HPLC of ATP formation; type: biochemical; settings: […] ADP, […] AcP, […] MgCl2, […] KPB pH […] °C
T1 construct: gene ackA; codon-optimised gene in pET21a (NdeI/XhoI, no stop codon; C-terminal vector His tag), E. coli BL21(DE3), Ni column
T1 sequence (A0ACH1E729 1-396): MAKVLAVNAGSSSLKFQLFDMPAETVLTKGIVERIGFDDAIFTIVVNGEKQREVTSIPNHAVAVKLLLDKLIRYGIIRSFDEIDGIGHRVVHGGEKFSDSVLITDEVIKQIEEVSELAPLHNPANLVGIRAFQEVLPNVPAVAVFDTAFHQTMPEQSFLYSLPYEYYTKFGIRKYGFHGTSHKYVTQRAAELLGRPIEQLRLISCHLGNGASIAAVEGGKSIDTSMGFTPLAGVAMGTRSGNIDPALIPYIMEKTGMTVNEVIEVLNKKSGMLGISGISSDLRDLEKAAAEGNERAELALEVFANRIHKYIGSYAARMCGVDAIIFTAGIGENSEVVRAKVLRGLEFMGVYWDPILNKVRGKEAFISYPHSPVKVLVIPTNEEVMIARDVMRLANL

[1] = system: T2, NC(=O)c1ccc[n+]([C@@H]2O[C@H](CO)[C@@H](O)[C@H]2O)c1; assay: purified protein; type: biochemical, Kluyveromyces marxianus; settings: apparent, 0.5 mM ATP, 12 mM MgCl2, 50 mM Tris-HCl pH 7.5, 50 mM NaCl, 50 mM KCl, 0.01% BSA, 30 °C
T2 construct: codon-optimised gene in pET21a (NdeI/XhoI, no stop codon; C-terminal vector His tag), E. coli BL21(DE3), Ni column; about 27 kDa

[2] = system: T3, Nc1ncnc2c1ncn2[C@@H]1O[C@H](COP(=O)(O)OP(=O)(O)OP(=O)(O)O)[C@@H](O)[C@H]1O; assay: purified protein; type: biochemical, Kluyveromyces marxianus; settings: apparent, 0.5 mM NR, 12 mM MgCl2, 50 mM Tris-HCl pH 7.5, 50 mM NaCl, 50 mM KCl, 0.01% BSA, 30 °C
T3 construct: codon-optimised gene in pET21a (NdeI/XhoI, no stop codon; C-terminal vector His tag), E. coli BL21(DE3), Ni column; about 27 kDa

| Compound | HPLC of ATP formation (Gbst-AcK) | Km [1] [µM] | Km [2] [µM] |
| --- | --- | --- | --- |
| Nc1ncnc2c1ncn2[C@@H]1O[C@H](COP(=O)(O)OP(=O)(O)O)[C@@H](O)[C@H]1O [ADP] | assayed as the generation of ATP from ADP with a sufficient amount of AcP |  |  |
| CC(=O)OP(=O)(O)O [AcP] | assayed as the generation of ATP from ADP with a sufficient amount of AcP |  |  |
| Klm-NRK (Kluyveromyces marxianus DMKU3-1042) |  | 45 ± 11 | 70 ± 6 |
